Experiments:
[1] = system: IL-4 induced STAT6 phosphorylation in THP-1 human monocytic cells; conditions: THP-1 cells
[2] = system: IL-13 induced STAT6 phosphorylation in BEAS-2B human lung epithelial cells; conditions: BEAS-2B cells

| SMILES | THP-1 IL4 pIC50 [1] | BEAS2B pIC50 [2] |
| --- | --- | --- |
| COc1ccc2c(N[C@@H]3C[C@H]4CC[C@@H](C3)N4CC(C)C)nc(Nc3cc(C)[nH]n3)cc2n1 [Example 5-4] | A (A represents a pEC50 value ≥7.5 (EC50≤32 nM)) | A (A represents a pEC50 value ≥7.5 (EC50≤32 nM)) |
| Cc1cc(Nc2nc(N[C@@H]3C[C@H]4CCC[C@@H](C3)N4Cc3ccncc3)c3cccnc3c2F)n[nH]1 [Example 8-14] | A (A represents a pEC50 value ≥7.5 (EC50≤32 nM)) | A (A represents a pEC50 value ≥7.5 (EC50≤32 nM)) |
| Cc1cnc2cc(Nc3cc(C)[nH]n3)nc(N[C@@H]3C[C@H]4CC[C@@H](C3)N4CCC#N)c2c1 [Example 6-1] | A (A represents a pEC50 value ≥7.5 (EC50≤32 nM)) | A (A represents a pEC50 value ≥7.5 (EC50≤32 nM)) |
| COc1cnc2cc(Nc3cc(C)[nH]n3)nc(N[C@@H]3C[C@H]4CC[C@@H](C3)N4CCC(F)(F)F)c2c1 [Example 6-15] | A (A represents a pEC50 value ≥7.5 (EC50≤32 nM)) | A (A represents a pEC50 value ≥7.5 (EC50≤32 nM)) |
| Cc1cc(Nc2cc3ncccc3c(N[C@@H]3C[C@H]4CCC[C@@H](C3)N4CCC(F)(F)F)n2)n[nH]1 [Example 1-44] | A (A represents a pEC50 value ≥7.5 (EC50≤32 nM)) | A (A represents a pEC50 value ≥7.5 (EC50≤32 nM)) |
| Cc1cc(Nc2cc3ncccc3c(N[C@@H]3C[C@H]4CCC[C@@H](C3)N4CC(C)C)n2)n[nH]1 [Example 1-43] | A (A represents a pEC50 value ≥7.5 (EC50≤32 nM)) | A (A represents a pEC50 value ≥7.5 (EC50≤32 nM)) |
| Cc1cc(Nc2nc(N[C@@H]3C[C@H]4CCC[C@@H](C3)N4S(C)(=O)=O)c3cccnc3c2F)n[nH]1 [Example 8-10] | A (A represents a pEC50 value ≥7.5 (EC50≤32 nM)) | A (A represents a pEC50 value ≥7.5 (EC50≤32 nM)) |
| Cc1cc(Nc2cc3ncccc3c(N[C@@H]3C[C@H]4CC[C@@H](C3)N4CC(C)C#N)n2)n[nH]1 (some centres unmarked) [Example 1-23] | A (A represents a pEC50 value ≥7.5 (EC50≤32 nM)) | A (A represents a pEC50 value ≥7.5 (EC50≤32 nM)) |
| COc1cnc2cc(Nc3cc(C)[nH]n3)nc(N[C@@H]3C[C@H]4CCC[C@@H](C3)N4CCC#N)c2c1 [Example 6-31] | A (A represents a pEC50 value ≥7.5 (EC50≤32 nM)) | A (A represents a pEC50 value ≥7.5 (EC50≤32 nM)) |
| Cc1cc(Nc2cc3nc(CN4CCOCC4)ccc3c(N[C@@H]3C[C@H]4CCC[C@@H](C3)N4S(=O)(=O)c3cncc(F)c3)n2)n[nH]1 [Example 5-30] | A (A represents a pEC50 value ≥7.5 (EC50≤32 nM)) | A (A represents a pEC50 value ≥7.5 (EC50≤32 nM)) |
| COc1ccc2c(N[C@@H]3C[C@H]4CC[C@@H](C3)N4CCC#N)nc(Nc3cc(C)[nH]n3)cc2n1 [Example 5-8] | A (A represents a pEC50 value ≥7.5 (EC50≤32 nM)) | A (A represents a pEC50 value ≥7.5 (EC50≤32 nM)) |
| Cc1cc(Nc2cc3ncccc3c(N[C@@H]3C[C@H]4CCC[C@@H](C3)N4S(=O)(=O)N3CCCC3)n2)n[nH]1 [Example 4-27] | A (A represents a pEC50 value ≥7.5 (EC50≤32 nM)) | A (A represents a pEC50 value ≥7.5 (EC50≤32 nM)) |
| Cc1cc(Nc2cc3nc(CN4CCOCC4)ccc3c(N[C@@H]3C[C@H]4CCC[C@@H](C3)N4S(=O)(=O)c3cccnc3)n2)n[nH]1 [Example 5-27] | A (A represents a pEC50 value ≥7.5 (EC50≤32 nM)) | A (A represents a pEC50 value ≥7.5 (EC50≤32 nM)) |
| COc1cnc2cc(Nc3cc(C)[nH]n3)nc(N[C@@H]3C[C@H]4CC[C@@H](C3)N4CC(C)C)c2c1 [Example 6-14] | A (A represents a pEC50 value ≥7.5 (EC50≤32 nM)) | A (A represents a pEC50 value ≥7.5 (EC50≤32 nM)) |
| Cc1cc(Nc2nc(N[C@@H]3C[C@H]4CC[C@@H](C3)N4S(C)(=O)=O)c3cccnc3c2F)n[nH]1 [Example 8-2] | A (A represents a pEC50 value ≥7.5 (EC50≤32 nM)) | C (C represents a pEC50 value <6.7 (EC50>200 nM)) |
| Cc1cc(Nc2cc3ncccc3c(N[C@@H]3C[C@H]4CCC[C@@H](C3)N4Cc3ccncc3C#N)n2)n[nH]1 [Example 1-56] | A (A represents a pEC50 value ≥7.5 (EC50≤32 nM)) | A (A represents a pEC50 value ≥7.5 (EC50≤32 nM)) |
| Cc1cc(Nc2cc3ncccc3c(N[C@@H]3C[C@H]4CCC[C@@H](C3)N4CCC#N)n2)n[nH]1 [Example 1-31] | A (A represents a pEC50 value ≥7.5 (EC50≤32 nM)) | A (A represents a pEC50 value ≥7.5 (EC50≤32 nM)) |
| Cc1cc(Nc2nc(N[C@@H]3C[C@H]4CCC[C@@H](C3)N4S(=O)(=O)c3cccnc3)c3cccnc3c2F)n[nH]1 [Example 8-12] | A (A represents a pEC50 value ≥7.5 (EC50≤32 nM)) | A (A represents a pEC50 value ≥7.5 (EC50≤32 nM)) |

| SMILES | THP-1 IL4 pIC50 [1] | BEAS2B pIC50 [2] |
| --- | --- | --- |
| Cc1cc(Nc2cc3ncccc3c(N[C@@H]3C[C@H]4CCC[C@@H](C3)N4S(=O)(=O)N3CCC3)n2)n[nH]1 [Example 4-29] | A (A represents a pEC50 value ≥7.5 (EC50≤32 nM)) | A (A represents a pEC50 value ≥7.5 (EC50≤32 nM)) |
| Cc1cc(Nc2cc3ncccc3c(N[C@@H]3C[C@H]4CCC[C@@H](C3)N4CCF)n2)n[nH]1 [Example 1-39] | A (A represents a pEC50 value ≥7.5 (EC50≤32 nM)) | A (A represents a pEC50 value ≥7.5 (EC50≤32 nM)) |
| COc1cnc2cc(Nc3cc(C)[nH]n3)nc(N[C@@H]3C[C@H]4CCC[C@@H](C3)N4S(C)(=O)=O)c2c1 [Example 6-29] | A (A represents a pEC50 value ≥7.5 (EC50≤32 nM)) | A (A represents a pEC50 value ≥7.5 (EC50≤32 nM)) |
| Cc1cnc2cc(Nc3cc(C)[nH]n3)nc(N[C@@H]3C[C@H]4CCC[C@@H](C3)N4CCC#N)c2c1 [Example 6-6] | A (A represents a pEC50 value ≥7.5 (EC50≤32 nM)) | A (A represents a pEC50 value ≥7.5 (EC50≤32 nM)) |
| COc1ccc2c(N[C@@H]3C[C@H]4CCC[C@@H](C3)N4CCC#N)nc(Nc3cc(C)[nH]n3)cc2n1 [Example 5-10] | A (A represents a pEC50 value ≥7.5 (EC50≤32 nM)) | A (A represents a pEC50 value ≥7.5 (EC50≤32 nM)) |
| CCC1(S(=O)(=O)N2[C@@H]3CCC[C@H]2C[C@H](Nc2nc(Nc4cc(C)[nH]n4)cc4ncccc24)C3)CC1 [Example 4-20] | A (A represents a pEC50 value ≥7.5 (EC50≤32 nM)) | A (A represents a pEC50 value ≥7.5 (EC50≤32 nM)) |
| CCC(CC#N)N1[C@@H]2CC[C@H]1C[C@H](Nc1nc(Nc3cc(C)[nH]n3)cc3ncccc13)C2 (some centres unmarked) [Example 1-22] | – | A (A represents a pEC50 value ≥7.5 (EC50≤32 nM)) |
| Cc1cnc2cc(Nc3cc(C)[nH]n3)nc(N[C@@H]3C[C@H]4CCC[C@@H](C3)N4S(=O)(=O)N3CC(C#N)C3)c2c1 [Example 6-9] | A (A represents a pEC50 value ≥7.5 (EC50≤32 nM)) | A (A represents a pEC50 value ≥7.5 (EC50≤32 nM)) |
| COc1cnc2cc(Nc3cc(C)[nH]n3)nc(N[C@@H]3C[C@H]4CCC[C@@H](C3)N4Cc3ccncc3)c2c1 [Example 6-28] | A (A represents a pEC50 value ≥7.5 (EC50≤32 nM)) | A (A represents a pEC50 value ≥7.5 (EC50≤32 nM)) |
| Cc1cc(Nc2cc3ncccc3c(N[C@@H]3C[C@H]4CCC[C@@H](C3)N4C(=O)c3ccnc(C#N)c3)n2)n[nH]1 [Example 2-30] | – | C (C represents a pEC50 value <6.7 (EC50>200 nM)) |
| Cc1cc(Nc2cc3ncccc3c(N[C@@H]3C[C@H]4CC[C@@H](C3)N4C(=O)C(C)F)n2)n[nH]1 (some centres unmarked) [Example 2-3] | – | A (A represents a pEC50 value ≥7.5 (EC50≤32 nM)) |
| COC(=O)c1cnc2cc(Nc3cc(C)[nH]n3)nc(N[C@@H]3C[C@H]4CCC[C@@H](C3)N4CCC#N)c2c1 [Example 6-47] | A (A represents a pEC50 value ≥7.5 (EC50≤32 nM)) | A (A represents a pEC50 value ≥7.5 (EC50≤32 nM)) |
| Cc1cc(Nc2cc3ncccc3c(N[C@@H]3C[C@H]4CCC[C@@H](C3)N4C(=O)c3ccccc3)n2)n[nH]1 [Example 2-25] | A (A represents a pEC50 value ≥7.5 (EC50≤32 nM)) | A (A represents a pEC50 value ≥7.5 (EC50≤32 nM)) |
| Cc1cc(Nc2cc3ncccc3c(N[C@@H]3C[C@H]4CCC[C@@H](C3)N4CCCF)n2)n[nH]1 [Example 1-40] | A (A represents a pEC50 value ≥7.5 (EC50≤32 nM)) | A (A represents a pEC50 value ≥7.5 (EC50≤32 nM)) |
| Cc1cc(Nc2cc3ncccc3c(N[C@@H]3C[C@H]4CCC[C@@H](C3)N4Cc3cccnc3)n2)n[nH]1 [Example 1-47] | A (A represents a pEC50 value ≥7.5 (EC50≤32 nM)) | A (A represents a pEC50 value ≥7.5 (EC50≤32 nM)) |
| Cc1cc(Nc2nc(N[C@@H]3C[C@H]4CCC[C@@H](C3)N4S(=O)(=O)c3ccccc3)c3cccnc3c2F)n[nH]1 [Example 8-11] | – | A (A represents a pEC50 value ≥7.5 (EC50≤32 nM)) |
| Cc1cc(Nc2cc3ncccc3c(N[C@@H]3C[C@H]4CCC[C@@H](C3)N4C(=O)c3cncc(C#N)c3)n2)n[nH]1 [Example 2-26] | – | C (C represents a pEC50 value <6.7 (EC50>200 nM)) |

Source: patent US10947254B2, “Methods for treating ulcerative colitis using 3-((1R,3s,5S)-3-((7-((5-methyl-1H-pyrazol-3-yl)amino)-1,6-naphthyridin-5-yl)amino)-8-azabicyclo[3.2.1]octan-8-yl)propanenitrile” (priority 2015, dated 2021)
